Data taken from patent publication US9981940B2, “Aryl sulfide derivatives and aryl sulfoxide derivatives as acaricides and insecticides” (BAYER CROPSCIENCE AKTIENGESELLSCHAFT, priority 2013, dated 2018).

Experiments:
[1] = log P by HPLC (OECD Guideline 117), method [a] acidic range; assay type: physicochemical; conditions: for logP[a]: HPLC, method [a] acidic range; for chromatographic logP: reversed-phase C18 HPLC column, acidic range
Protocol: (§1) The log P values were determined analogously to OECD Guideline 117 (EC Directive 92/69/EEC) by HPLC (high-performance liquid chromatography) using reversed-phase columns (C 18), by the following methods:
[a] The LC-MS determination in the acidic range is effected at pH 2.7 with 0.1% aqueous formic acid and acetonitrile (contains 0.1% formic acid) as eluents; linear gradient from 10% acetonitrile to 95% acetonitrile.

[2] = log P by HPLC (OECD Guideline 117), method [b] neutral range; assay type: physicochemical; conditions: HPLC; for logP[b]: method [b] neutral range; for chromatographic logP: reversed-phase C18 HPLC column, neutral range, pH 7.8
Protocol: as §1
[b] The LC-MS determination in the neutral range is effected at pH 7.8 with 0.001 molar aqueous ammonium hydrogencarbonate solution and acetonitrile as eluents; linear gradient from 10% acetonitrile to 95% acetonitrile.

[3] = test system: Tetranychus urticae; test: Tetranychus urticae spray test, OP-resistant (TETRUR); assay type: in vivo; conditions: after 6 days; for pest or weed control at 500 g/ha: Tetranychus urticae, 144 h, read-out: efficacy
How it was run: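 Mortality as % efficacy (0% = no mites killed) read 6 days after spraying. Formulation: active ingredient in acetone/dimethylformamide plus emulsifier, diluted with emulsifier-containing water, applied to Phaseolus vulgaris leaf discs carrying every life stage of OP-resistant spider mites.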

[4] = pH 2.7, HPLC method [a], read-out: logP[a]
[5] = pH 2.7, HPLC, pH 2.7, read-out: log P[a]

| Structure (SMILES) | logP[a] [1] | logP[b] [2] | chromatographic logP [1, 4] | chromatographic logP [1, 5] | chromatographic logP [2] | efficacy ([3]; application rate of 500 g/ha) [%] | pest or weed control at 500 g/ha ([3]; application rate of 500 g/ha) [%] | efficacy ([3]; application rate of 100 g/ha) [%] |
| --- | --- | --- | --- | --- | --- | --- | --- | --- |
| Cc1ccc(-n2nc(OCC(C)(C)C)n(C)c2=O)cc1[S+]([O-])CC(F)(F)F (stereo not drawn) [Example 162] | 3.67 | 3.57 | – | – | – | 90 | – | – |
| Cc1cc(F)c(-n2nc(OC3CCCCC3)n(C)c2=O)cc1[S+]([O-])CC(F)(F)F (stereo not drawn) [Example 164] | 3.29 | 3.22 | – | – | – | 90 | – | – |
| C=CCSc1nn(-c2cc(SCC(F)(F)F)c(C)cc2F)c(=O)n1CC=C [Example 429] | 4.13 | 4.07 | – | – | – | 90 | – | – |
| Cc1cc(F)c(-n2nc(C)n(N(C)C)c2=O)cc1[S+]([O-])CC(F)(F)F (stereo not drawn) [Example 210] | 2.09 | 2.09 | – | – | – | 100 | – | – |
| CCCCOc1nn(-c2cc(SCC(F)(F)F)c(C)cc2F)c(=O)n1C1CC1 [Example 125] | 4.41 | 4.35 | – | – | – | 90 | – | – |
| Cc1cc(F)c(-n2c(C)c(C)sc2=NCC(F)(F)F)cc1SCC(F)(F)F [Example 343, 2,2,2-Trifluoro-N-[3-{2-fluoro-4-methyl-5-[(2,2,2-trifluoroethyl)sulphanyl]phenyl}-4,5-dimethyl-1,3-thiazol-2(3H)-ylidene]ethanamine] | – | – | 3.02 | 3.02 | 4.91 | – | 100 | – |
| COc1nn(-c2ccc(C)c(SCC(F)(F)F)c2)c(=O)n1C1CC1 [Example 90] | 3.74 | 3.67 | – | – | – | 100 | – | – |
| C=C(C)CCOc1nn(-c2cc(SCC(F)(F)F)c(C)cc2F)c(=O)n1C1CC1 [Example 136] | 4.37 | 4.33 | – | – | – | 90 | – | – |
| CNn1c(N(C)C)nn(-c2cc([S+]([O-])CC(F)(F)F)c(C)cc2F)c1=O (stereo not drawn) [Example 217] | 2.02 | 1.98 | – | – | – | 90 | – | – |
| CC[S+]([O-])c1nn(-c2cc([S+]([O-])CC(F)(F)F)c(C)cc2F)c(=O)n1C1CC1 (stereo not drawn) [Example 235] | 1.85 | 1.80 | – | – | – | 100 | – | – |
| C=CCn1c(SCC)nn(-c2cc([S+]([O-])CC(F)(F)F)c(C)cc2F)c1=O (stereo not drawn) [Example 431] | 2.83 | 2.92 | – | – | – | 90 | – | – |
| CCCCOC1=CC(=O)N(c2cc([S+]([O-])CC(F)(F)F)c(C)cc2F)C1 (stereo not drawn) [Example 326] | 2.91 | 2.88 | – | – | – | 90 | – | – |
| Cc1cc(C)c([S+]([O-])CC(F)(F)F)cc1-n1ncn(Cc2ccccc2)c1=O (stereo not drawn) [Example 374] | 2.50 | 2.47 | – | – | – | 90 | – | – |
| Cc1cc(F)c(-n2nc(SC(C)C)n(C3CC3)c2=O)cc1[S+]([O-])CC(F)(F)F (stereo not drawn) [Example 267] | 3.19 | 3.12 | – | – | – | 100 | – | – |
| CCCCOc1nn(-c2ccc(C)c(SCC(F)(F)F)c2)c(=O)n1C1CC1 [Example 126] | 5.11 | 5.02 | – | – | – | 90 | – | – |
| CCOc1nn(-c2ccc(C)c(SCC(F)(F)F)c2)c(=O)n1C [Example 130] | 3.77 | 3.74 | – | – | – | 90 | – | – |
| Cc1cc(F)c(-n2nc(-c3cccc(F)c3)n(C3CC3)c2=O)cc1SCC(F)(F)F [Example 69] | 3.98 | 3.89 | – | – | – | – | – | 100 |
| COc1cc(F)c(-n2nc(OCC(C)(C)C)n(C3CC3)c2=O)cc1SCC(F)(F)F [Example 395] | 4.38 | 4.32 | – | – | – | 100 | – | – |
| COC1=CC(=O)N(c2cc(SCC(F)(F)F)c(C)cc2F)C1 [Example 310, 1-{2-Fluoro-4-methyl-5-[(2,2,2-trifluoroethyl)sulphanyl]phenyl}-4-methoxy-1,5-dihydro-2H-pyrrol-2-one] | – | – | 2.87 | 2.87 | 2.81 | – | 100 | – |
| Cc1cc(F)c(-n2nc(CC(C)C)n(C3CC3)c2=S)cc1SCC(F)(F)F [Example 493] | 4.44 | 4.35 | – | – | – | 100 | – | – |
| COC1=CC(=O)N(c2ccc(C)c([S+]([O-])CC(F)(F)F)c2)C1 (racemic) [Example 317] | 1.90 | 1.90 | – | – | – | 90 | – | – |
| CC1=C(C)C(=O)N(c2cc([S+]([O-])CC(F)(F)F)c(C)cc2F)C1=O (stereo not drawn) [Example 341] | 2.52 | 2.49 | – | – | – | 90 | – | – |
| CCOc1nn(-c2cc([S+]([O-])CC(F)(F)F)c(C)cc2F)c(=O)n1C1CC1 (stereo not drawn) [Example 121] | 2.47 | 2.43 | – | – | – | 100 | – | – |
| COCCc1nn(-c2cc([S+]([O-])CC(F)(F)F)c(C)cc2F)c(=O)n1C1CC1 (racemic) [Example 76] | 2.03 | 1.97 | – | – | – | 100 | – | – |
| COc1nn(-c2cc(SCC(F)(F)F)c(F)cc2F)c(=O)n1C1CC1 [Example 171] | 2.97 | 2.92 | – | – | – | 100 | – | – |
| CCCc1nn(-c2cc([S+]([O-])CC(F)(F)F)c(C)cc2F)c(=O)n1C1CC1 (racemic) [Example 80] | 2.56 | 2.49 | – | – | – | 100 | – | – |
| CCSc1nn(-c2cc([S+]([O-])CC(F)(F)F)c(C)cc2F)c(=O)n1C (stereo not drawn) [Example 274, 5-(Ethylsulphanyl)-2-{2-fluoro-4-methyl-5-[(2,2,2-trifluoroethyl)sulphinyl]phenyl}-4-methyl-2,4-dihydro-3H-1,2,4-triazol-3-one] | – | – | 2.42 | 2.42 | 2.36 | – | 100 | – |
| Cc1cc(F)c(-n2nc([S+]([O-])Cc3ccccc3)n(C)c2=O)cc1[S+]([O-])CC(F)(F)F (stereo not drawn) [Example 250] | 2.34 | 2.29 | – | – | – | 100 | – | – |

Further lines, with some results ahead:

| logP[a] [1] | logP[b] [2] | chromatographic logP [1, 4] | chromatographic logP [1, 5] | chromatographic logP [2] | Structure (SMILES) | efficacy ([3]; application rate of 500 g/ha) [%] | pest or weed control at 500 g/ha ([3]; application rate of 500 g/ha) [%] | efficacy ([3]; application rate of 100 g/ha) [%] |
| --- | --- | --- | --- | --- | --- | --- | --- | --- |
| 3.80 | 3.73 | – | – | – | COCCn1c(C(F)(F)F)nn(-c2cc(SCC(F)(F)F)c(C)cc2F)c1=O [Example 89] | 100 | – | – |
| 4.02 | 4.04 | – | – | – | C=CCn1c(C(F)(F)F)nn(-c2cc(SCC(F)(F)F)c(C)cc2F)c1=O [Example 345] | 100 | – | – |
| 2.91 | 2.90 | – | – | – | COCc1nn(-c2cc(SCC(F)(F)F)c(C)cc2F)c(=O)n1C1CC1 [Example 46] | 90 | – | – |
| 3.61 | 3.58 | – | – | – | C=CCn1c(SC)nn(-c2cc(SCC(F)(F)F)c(C)cc2F)c1=O [Example 271] | 100 | – | – |
| 2.88 | 2.77 | – | – | – | CCn1c(C(F)(F)F)nn(-c2cc([S+]([O-])CC(F)(F)F)c(C)cc2F)c1=O (stereo not drawn) [Example 58] | 90 | – | – |
| 2.68 | 2.65 | – | – | – | CC[S+]([O-])c1nn(-c2cc(SCC(F)(F)F)c(C)cc2F)c(=O)n1C1CC1 (stereo not drawn) [Example 234] | 100 | – | – |
| 3.97 | 3.91 | – | – | – | Cc1cc(F)c(-n2nc(C(F)(F)F)n(C3CC3)c2=O)cc1SCC(F)(F)F [Example 59] | 100 | – | – |
| 3.48 | 3.38 | – | – | – | Cc1cc(F)c(-n2nc(Br)n(C3CC3)c2=O)cc1SCC(F)(F)F [Example 294] | 100 | – | – |
| 3.15 | 3.08 | – | – | – | Cc1cc(F)c(-n2nc(C(F)(F)F)n(N)c2=O)cc1SCC(F)(F)F [Example 205] | 100 | – | – |
| 3.84 | 3.79 | – | – | – | CCn1c(OCC(F)(F)F)nn(-c2cc(SCC(F)(F)F)c(C)cc2F)c1=O [Example 398] | 100 | – | – |
| 3.99 | 3.93 | – | – | – | Cc1cc(F)c(-n2nc(CC(C)C)n(C3CC3)c2=O)cc1SCC(F)(F)F [Example 83] | 100 | – | – |
| 2.93 | 2.89 | – | – | – | Cc1cc(F)c(-n2nc(SCC(F)(F)F)n(C3CC3)c2=O)cc1[S+]([O-])CC(F)(F)F (stereo not drawn) [Example 255] | 100 | – | – |
| 4.13 | 4.09 | – | – | – | Cc1cc(C)c(-n2nc(C(F)(F)F)n(C3CC3)c2=O)cc1SCC(F)(F)F [Example 48] | 100 | – | – |
| 2.65 | 2.60 | – | – | – | Cc1cc(F)c(-n2nc(SC(F)(F)F)n(C)c2=O)cc1[S+]([O-])CC(F)(F)F (racemic) [Example 284] | 100 | – | – |
| 3.20 | 3.15 | – | – | – | Cc1cc(F)c(-n2nc(N(C)C)n(C3CC3)c2=O)cc1SCC(F)(F)F [Example 193] | 100 | – | – |
| 3.16 | 3.15 | – | – | – | COCCCn1c(OC)nn(-c2cc(SCC(F)(F)F)c(C)cc2F)c1=O [Example 388] | 90 | – | – |
| 2.94 | 2.85 | – | – | – | Cc1cc(F)c(-n2nc([S+]([O-])CC3CC3)n(C)c2=O)cc1SCC(F)(F)F (stereo not drawn) [Example 247] | 100 | – | – |
